Laboratory results as given in US20140309295A1, “ANTIEPILEPTIC, HYPOCHOLESTEROLEMIC AND NEUROPROTECTIVE COMPOUND” (NEURON BIOPHARMA, S.A., priority 2009, published 2014).

Tests used:
[1] = tested on: CD1 mice inoculated with MPTP (acute); test: Acute MPTP model of Parkinson's disease in mice; type: in vivo
Experimental: All the animals included for the experimental process were 12-week old males of the CD1 strain. The experiments were conducted strictly following the Guidance on the Operation of Animals (Scientific Procedures, Act. 1986). The animals had their respective quarantine period and were treated with maximum precaution to minimize possible contaminations during inoculations and handling.
Forty animals were used in this assay and the treatments were conducted with a volume of 100 μl, according to the following regimens: • i) PBS+PBS+PBS regimen: 10 animals were initially treated with PBS with a daily dose for 2 days by subcutaneous (s.c.) route, on the second day the animals were inoculated with 4 doses of PBS, at intervals of 2 hours by intraperitoneal (i.p.) route. For the next 7 days they were administered a daily dose of PBS by s.c. route. • ii) PBS+MPTP+PBS regimen: 10 animals were initially treated with a daily dose for 2 days of PBS by s.c. route, on the second day the animals were inoculated with 4 doses of MPTP at 20 mg/Kg, at intervals of 2 hours by i.p. route. For the next 7 days they were administered a daily dose of PBS by s.c. route. • iii) NST0037+MPTP+NST0037 regimen: 10 animals were initially treated with a daily dose for 2 days of NST0037 at 50 mg/kg by s.c. route, on the second day the animals were inoculated with 4 doses of MPTP at 20 mg/Kg, at intervals of 2 hours by i.p. route. For the next 7 days they were administered a daily dose of NST0037 at 50 mg/kg by s.c. route.
Before starting the treatments and once the treatment time of 7 days ended, the animals were subjected to a locomotor resistance test referred to as the Rotarod test for 2 minutes, recording the time the animals resisted walking over a cylinder which increased its speed from 4 to 40 r.p.m.
Before starting the treatments and once the treatment time of 7 days ended, the animals were subjected to a strength test in the so-called Grip-strength test, recording the strength of gripping a bar in grams exerted by the animals with the front paws in triplicate.
Once the treatment time of 7 days ended, the animals were sacrificed and the brains were dissected. The brain samples were processed and included in paraffin. For the analysis of neurodegeneration in the substantia nigra and the striatum, fluorescent Fluoro Jade B (FJB) staining was performed in 5 μm thick sagittal sections.
Once the treatment time of 7 days ended, the animals were sacrificed and the brains were dissected. The brain samples were processed and included in paraffin. For the analysis of the presence of dopaminergic neurons in the substantia nigra and the striatum, the immunohistochemistry against the tyrosine-hydroxylase (TH) protein was performed in 5 μm thick sagittal sections.

[2] = tested on: Candida albicans CECT 1002; test: Fungicidal activity bioassay (growth inhibition halos); type: cell-based; details: β-hydroxy acid form
Experimental: The fungicidal activity of NST0037 was analyzed by means of bioassay against Candida albicans. […] The assayed concentrations were the following: 2, 1.5, 1, 0.5, 0.25, 0.125, 0.06, 0.025 and 0.01 mM. Plates of MA medium (containing per liter: 20 g malt extract, 20 g glucose, 1 g mycopeptone and 10 g agar) previously inoculated with a culture of Candida albicans CECT (Spanish Type-Culture Collection) 1002 were prepared. With aid of a die (6 mm in diameter) various wells were prepared in which 40 μL of the previous solutions were deposited. The study was performed in triplicate and triplicates for each compound and concentration were included in each plate. The plates were kept at 4° C. for 1 hour and were subsequently incubated at 28° C. overnight. The presence of antifungal activity was determined by means of the formation of C. albicans growth inhibition halos.

caspase 3/7 = test: Inhibition of camptothecin-induced activation of caspase 3/7 in SK-N-MC cells; type: cell-based, human; details: 50 μM CPT, 6 h
Experimental: The assay was performed on human neuroblastoma SK-N-MC cells in culture from the American Type Culture Collection (ATCC), in all cases strict rules of sterility were followed and the manipulation was performed in class II biological safety cabinets following European standard EN 12469. The cells were maintained in the following culture medium: Minimum Essential Medium Eagle (MEM) supplemented with 1 mM sodium pyruvate, 2 mM L-glutamine, 0.1 mM non-essential amino acids, 0.05 mg/ml gentamicin and 10% fetal bovine serum. The induction of apoptosis on the cells in culture was performed by means of incubation with camptothecin (CPT), which triggers cell apoptosis activation. The apoptosis was determined by means of the measurement of the activation of effector caspases, caspase 3 or caspase 7, for which a kit for the fluorometric detection of active caspase 3/7 (Apo-ONE® Homogeneous Caspase-3/7, Promega) was used. The active caspase 3 or 7 of the cells cause the rupture of a substrate, which leads to fluorescence emission, which is read by means of a fluorometer. The effect of the pretreatment of compound NST0037 at 10 and 40 μM on the activation of caspase 3/7 caused by 50 μM of camptothecin (CPT) in the SK-N-MC cells was thus analyzed. These cells, not exceeding 15 passages, were seeded on 96-well plates treated for adherent cells with a cell concentration of 5×10^4 cells/well, 3 wells of the plate were seeded for each condition of the assay. After 24 hours of cell incubation at 37° C. and 5% CO2, the pretreatment with NST0037 at 10 and 40 μM was performed. […] On the following day, fluorescence was measured (499/521 nm, […]).

[3] = NST0037+MPTP+NST0037, 50 mg/kg s.c., 7 days
[4] = NST0037+MPTP+NST0037 vs PBS+MPTP+PBS, 7 days

CCC(CC)C(=O)O[C@H]1C[C@@H](C)C=C2C=C[C@H](C)[C@H](CC[C@@H]3C[C@@H](O)CC(=O)O3)[C@H]21 [NST0037, (1S,2S,6R,8S,8aR)-1,2,6,7,8,8a-hexahydro-3,7-dimethyl-8-[2-[(2R,4R)-tetrahydro-4-hydroxy-6-oxo-2H-pyran-2-yl]ethyl]-1-naphthalenyl-2-ethyl-butyrate] was tested, and the “motor resistance (Rotarod test)” value [1, 3] was “prevents the motor deterioration of the animals”, the “strength (Grip-strength test)” value [1, 3] was “prevents the loss of strength induced by MPTP” and the “survival after acute administration of MPTP” value ([1]; NST0037+MPTP+NST0037, 50 mg/kg s.c., MPTP 4 x 20 mg/Kg i.p.) was “promotes the survival of the animals”. The “dopaminergic neurons (tyrosine-hydroxylase) in substantia nigra and striatum” value [1, 4] was “larger number of TH-positive cells in the substantia nigra as well as a higher labeling intensity in the striatum”, the “neurodegeneration (Fluoro Jade B) in substantia nigra and striatum” value [1, 4] was “number of cells in degeneration and positive for FJB significantly lower” and the “inhibition halos at lower concentrations” value ([2]; 0.06 and 0.025 mM) was “the only one capable of causing inhibition halos”. The “antifungal activity (inhibition halos)” value ([2]; 2 to 0.01 mM) was “higher antifungal activity than the statins included in the assay”, the “inhibition of caspase 3/7 with respect to camptothecin” value (caspase 3/7; pretreatment 10 μM NST0037) was 26% and the “inhibition of caspase 3/7 with respect to camptothecin” value (caspase 3/7; pretreatment 40 μM NST0037) was 33%.
